What was measured:
Test in all cases: relative viability (nuclei count vs DMSO), 5 days (fraction); higher = more cells survive
NCI-H1944 = system: NCI-H1944
Summary of the method: (§1)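 One day after seeding in 1536-well plates, lung cancer cell lines were dosed by pin tool. Dosing was either single-drug or a fixed anchor-drug dose plus five library-drug doses (not always all listed) in √10 steps. After 5 days, nuclei were stained in one fix-and-stain step and counted on 4× images, and relative viability is the nuclei count of treated wells over that of vehicle wells, given as the median of duplicate plates.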

NCI-H1734 = system: NCI-H1734
Summary of the method: as §1

NCI-H23 = system: NCI-H23
Summary of the method: as §1

LC-2-ad = system: LC-2-ad
Summary of the method: as §1

NCI-H1993 = system: NCI-H1993
Summary of the method: as §1

EMC-BAC-2 = system: EMC-BAC-2
Summary of the method: as §1

HCC-78 = system: HCC-78
Summary of the method: as §1

ABC-1 = system: ABC-1
Summary of the method: as §1

HCC-366 = system: HCC-366
Summary of the method: as §1

ChaGo-K-1 = system: ChaGo-K-1
Summary of the method: as §1

LK-2 = system: LK-2
Summary of the method: as §1

A-427 = system: A-427
Summary of the method: as §1

HARA = system: HARA
Summary of the method: as §1

HCC-15 = system: HCC-15
Summary of the method: as §1

NCI-H2405 = system: NCI-H2405
Summary of the method: as §1

NCI-H838 = system: NCI-H838
Summary of the method: as §1

NCI-H1793 = system: NCI-H1793
Summary of the method: as §1

COc1cc(N2CCC(C(N)=O)CC2)ccc1Nc1nc(N)c(Cl)c(Nc2ccccc2S(=O)(=O)C(C)C)n1 [HG-5-88-01] + NC(=O)Nc1cc(-c2cccc(F)c2)sc1C(=O)N[C@H]1CCCNC1 [AZD7762] (partner 0.2 µM)
relative viability (NCI-H1944; first compound 0.04 µM): 0.586
relative viability (NCI-H1944; first compound 0.1265 µM): 0.503
relative viability (NCI-H1944; first compound 0.4 µM): 0.434
relative viability (NCI-H1944; first compound 1.265 µM): 0.514
relative viability (NCI-H1944; first compound 4 µM): 0.469
relative viability (NCI-H1734; first compound 0.04 µM): 0.515
relative viability (NCI-H1734; first compound 0.1265 µM): 0.514
relative viability (NCI-H1734; first compound 0.4 µM): 0.52
relative viability (NCI-H1734; first compound 1.265 µM): 0.511
relative viability (NCI-H1734; first compound 4 µM): 0.724
relative viability (NCI-H23; first compound 0.04 µM): 0.483
relative viability (NCI-H23; first compound 0.1265 µM): 0.27
relative viability (NCI-H23; first compound 0.4 µM): 0.213
relative viability (NCI-H23; first compound 1.265 µM): 0.235
relative viability (NCI-H23; first compound 4 µM): 0.174
relative viability (LC-2-ad; first compound 0.04 µM): 0.888
relative viability (LC-2-ad; first compound 0.1265 µM): 0.76
relative viability (LC-2-ad; first compound 0.4 µM): 0.787
relative viability (LC-2-ad; first compound 1.265 µM): 0.857
relative viability (LC-2-ad; first compound 4 µM): 0.87
relative viability (NCI-H1993; first compound 0.04 µM): 0.845
relative viability (NCI-H1993; first compound 0.1265 µM): 0.875
relative viability (NCI-H1993; first compound 0.4 µM): 0.77
relative viability (NCI-H1993; first compound 4 µM): 0.558
relative viability (EMC-BAC-2; first compound 0.04 µM): 1.09
relative viability (EMC-BAC-2; first compound 0.1265 µM): 1.21
relative viability (EMC-BAC-2; first compound 0.4 µM): 0.922
relative viability (EMC-BAC-2; first compound 1.265 µM): 0.975
relative viability (EMC-BAC-2; first compound 4 µM): 0.65
relative viability (HCC-78; first compound 0.04 µM): 0.576
relative viability (HCC-78; first compound 0.1265 µM): 0.553
relative viability (HCC-78; first compound 0.4 µM): 0.472
relative viability (HCC-78; first compound 1.265 µM): 0.361
relative viability (HCC-78; first compound 4 µM): 0.364
relative viability (ABC-1; first compound 0.04 µM): 0.663
relative viability (ABC-1; first compound 0.1265 µM): 0.63
relative viability (ABC-1; first compound 0.4 µM): 0.645
relative viability (ABC-1; first compound 1.265 µM): 0.688
relative viability (ABC-1; first compound 4 µM): 0.657
relative viability (HCC-366; first compound 0.04 µM): 0.286
relative viability (HCC-366; first compound 0.1265 µM): 0.294
relative viability (HCC-366; first compound 0.4 µM): 0.249
relative viability (HCC-366; first compound 1.265 µM): 0.234
relative viability (HCC-366; first compound 4 µM): 0.199
relative viability (ChaGo-K-1; first compound 0.04 µM): 0.842
relative viability (ChaGo-K-1; first compound 0.1265 µM): 0.909
relative viability (ChaGo-K-1; first compound 0.4 µM): 0.828
relative viability (ChaGo-K-1; first compound 1.265 µM): 0.852
relative viability (ChaGo-K-1; first compound 4 µM): 0.727
relative viability (LK-2; first compound 0.04 µM): 0.326
relative viability (LK-2; first compound 0.1265 µM): 0.329
relative viability (LK-2; first compound 0.4 µM): 0.301
relative viability (LK-2; first compound 4 µM): 0.157
relative viability (A-427; first compound 0.04 µM): 0.67
relative viability (A-427; first compound 0.1265 µM): 0.776
relative viability (A-427; first compound 0.4 µM): 0.744
relative viability (A-427; first compound 1.265 µM): 0.656
relative viability (A-427; first compound 4 µM): 0.679
relative viability (HARA; first compound 0.04 µM): 0.493
relative viability (HARA; first compound 0.1265 µM): 0.313
relative viability (HARA; first compound 0.4 µM): 0.332
relative viability (HARA; first compound 1.265 µM): 0.352
relative viability (HARA; first compound 4 µM): 0.322
relative viability (HCC-15; first compound 0.04 µM): 1.27
relative viability (HCC-15; first compound 0.1265 µM): 0.595
relative viability (HCC-15; first compound 0.4 µM): 1.15
relative viability (HCC-15; first compound 1.265 µM): 1.3
relative viability (HCC-15; first compound 4 µM): 1.04
relative viability (NCI-H2405; first compound 0.04 µM): 0.769
relative viability (NCI-H2405; first compound 0.1265 µM): 0.659
relative viability (NCI-H2405; first compound 0.4 µM): 0.569
relative viability (NCI-H2405; first compound 1.265 µM): 0.638
relative viability (NCI-H2405; first compound 4 µM): 0.504
relative viability (NCI-H838; first compound 0.04 µM): 0.917
relative viability (NCI-H838; first compound 0.1265 µM): 0.958
relative viability (NCI-H838; first compound 0.4 µM): 0.881
relative viability (NCI-H838; first compound 1.265 µM): 0.749
relative viability (NCI-H838; first compound 4 µM): 0.847
relative viability (NCI-H1793; first compound 0.04 µM): 0.557
relative viability (NCI-H1793; first compound 0.1265 µM): 0.409
relative viability (NCI-H1793; first compound 0.4 µM): 0.379
relative viability (NCI-H1793; first compound 1.265 µM): 0.452
relative viability (NCI-H1793; first compound 4 µM): 0.186
